This is an account of results in patent publication US5208246A, “Tetralones with pharmacological activity” (J. Uriach & Cia., priority 1991, dated 1993).

For experiment [1], the system named is portal vein isolated from rat. In words: Test 1: Inhibition of the contraction induced by noradrenaline in portal vein isolated from rat. To be noted: 0.5 h. Here is the method:
Test 1: Inhibition of the contraction induced by noradrenaline in portal vein isolated from rat.
Portal vein was extracted from adult male rats (between 200 and 250 g of body weight), which had been stunned by a blow in the head. Portal vein was installed into an isolated organ bath (Letica) containing a physiological saline solution (Hamilton et al., Br. J. Pharmacol., 1986, 103-111) at 37° C. and a gas bubbler (5% CO2 and 95% O2). Contractions were induced by noradrenaline (3 μM) and were reverted after thoroughly washing with physiological saline solution. Portal vein contraction was measured with an isometric force transducer and with an initial tension of 1 g. After two contractions with noradrenaline, performed in order to measure the tissue's basal response, the tested compounds were incubated for 30 minutes and a new contraction was induced.

Experiment [2] relates to hypertense rats. Description: Test 2: Lowering of the arterial pressure in concious hypertense rats. In kind it is in vivo, rat. To be noted: 1 mg/Kg p.o.; spontaneously hypertense rats, conscious; 3 animals; arterial pressure every 60 minutes during 4 hours. As to the method: Test 2: Lowering of the arterial pressure in concious hypertense rats.
Spontaneously hypertense rats (between 200 and 250 g of body weight) of more than 8 weeks of age have been used. Diastolic and systolic arterial pressure of the rat was measured at the caudal artery using a special sphygnomanometer (Letica 5007 and 5007/4) attached to the animal's tail. To ensure rapid and reliable data, animals were placed in a heating plate at 37° C., with the aim to produce a vasodilation that ensured a better fixation of the rat tail to the transfer chamber. During the experiment, rats are conscious and fixed to a clamp. The tested products were administered orally. Arterial pressure was measured every 60 minutes during 4 hours and 10 minutes before the administration of the tested compound. The decrease of the arterial pressure was calculated for each compound at a dose of 1 mg/Kg, using 3 animals.

The subject of experiment [3] is trachea isolated from guinea pig. Description: Test 3: Direct relaxation of the trachea isolated from guinea pig. To be noted: Cavia porcellus; 50% of the maximum relaxation; maximum = relaxation by isoproterenol at 1×10^-6 M; cumulative addition; basal tension 0.5 g; 37° C. As to the method:
Test 3-Direct relaxation of the trachea isolated from guinea pig.
This test was performed according to the experimental model described by Emmerson, J. and Mackay, D. (J. Pharm. Pharmacol., 1979, 31, 798). Tracheas were extracted from male guinea pigs of 400 g of body weight, which had been stunned by a blow in the head. Then, tracheas were cut in zigzag and placed into an isolated organ bath (Letica) containing Krebs-Henseleit solution at 37° C. and were bubbled with carbogen (95% O2 and 5% CO2). The relaxation of the trachea was measured using an isometric force transducer. The basal tension was 0.5 g.

In general, IC50 refers to the midpoint of a concentration-inhibition curve. A high value points to lower potency. Broadly, the EC50 is the concentration giving half of the maximal effect.

SMILES strings stand for the structures. A value given as a limit tells only on which side of the number the result lay.

Consider `CC1(C)C(=O)c2ccc(Br)cc2[C@@H](n2ccccc2=O)[C@@H]1O` (relative stereo) [Compound 14, Trans 6-bromo-4-(1,2-dihydro-2-oxo-1-pyridyl)-2,2-dimethyl-3-hydroxy-1,2,3,4-tetrahydronaphthalen-1-one], for which, in experiment [1], the IC50 is 28 µM. For the same molecule, the “Pressure Decrease” value in experiment [2] stood at 23 mm Hg. Besides, in experiment [3], the EC50 is above 10 µM.

`CC1(C)C(=O)c2ccc(Br)cc2[C@@H](N2CCCC2=O)[C@@H]1O` (relative stereo) [Compound 18, Trans 6-bromo-2,2-dimethyl-3-hydroxy-4-(2-oxo-1-pyrrolidinyl)-1,2,3,4-tetrahydronaphthalen-1-one] registered an IC50 in experiment [1] above 10 µM. Moreover, in experiment [2], the “Pressure Decrease” value is on record as 39 mm Hg. Besides, a half-maximal effect in experiment [3] (EC50) was put at 78 µM.

Turning to `CC1(C)C(=O)c2ccc(Br)cc2[C@@H](N2Cc3ccccc3C2=O)[C@@H]1O` (relative stereo) [Compound 22, Trans 6-bromo-4-(2,3-dihydro-1-oxo-1H-isoindol-2-yl)-2,2-dimethyl-3-hydroxy-1,2,3,4-tetrahydronaphthalen-1-one], the IC50 in experiment [1] amounted to 3.1 µM. Moreover, in experiment [2], the “Pressure Decrease” value was 24 mm Hg. The molecule further came in with an EC50 in experiment [3] above 50 µM.

With `CC1(C)C(=O)c2ccc(C#N)cc2[C@@H](n2ccccc2=O)[C@@H]1O` (relative stereo) [Compound 23, Trans 4(1,2-dihydro-2-oxo-1-pyridyl)-2,2-dimethyl-3-hydroxy-1-oxo-1,2,3,4-tetrahydronaphthalen-6-carbonitrile], in experiment [1], half-maximal inhibition (IC50) was put at 14 µM. In addition, the “Pressure Decrease” value in experiment [2] is on record as 84 mm Hg. The molecule also registered an EC50 in experiment [3] of 99 µM.

`CC(=O)O[C@H]1[C@H](n2ccccc2=O)c2cc(C#N)ccc2C(=O)C1(C)C` (relative stereo) [Compound 24, Trans 3-acetoxy-4-(1,2-dihydro-2-oxo-1-pyridyl)-2,2-dimethyl-1-oxo-1,2,3,4-tetrahydronaphthalen-6-carbonitrile] displayed an IC50 in experiment [1] of 23 µM. In addition, the “Pressure Decrease” value in experiment [2] is listed as 64.7 mm Hg. The molecule also yielded an EC50 in experiment [3] of 2.2 µM.

Take `CC(=O)N(C)c1ccc2c(c1)[C@@H](n1ccccc1=O)[C@H](O)C(C)(C)C2=O` (relative stereo) [Compound 36, Trans 4-(1,2-dihydro-2-oxo-1-pyridyl)-2,2-dimethyl-3-hydroxy-6-N-methylacetamide-1,2,3,4-tetrahydronaphthalen-1-one]: the IC50 in experiment [1] stood at 33 µM. In addition, in experiment [2], the “Pressure Decrease” value was 94 mm Hg. For the same molecule, the EC50 in experiment [3] is above 100 µM.

As for `CC1(C)C(=O)c2ccc(C(F)(F)F)cc2[C@@H](n2ccccc2=O)[C@@H]1O` (relative stereo) [Compound 41, Trans 4-(1,2-dihydro-2-oxo-1-pyridyl)-2,2-dimethyl-3-hydroxy-1,2,3,4-tetrahydro-6-trifluoromethylnaphthalen-1-one], the “Pressure Decrease” value in experiment [2] is 52.6 mm Hg. The same molecule registered an EC50 in experiment [3] of 1 µM.

Turning to `CC1(C)C(=O)c2cc(Cl)c(Cl)cc2[C@@H](n2ccccc2=O)[C@@H]1O` (relative stereo) [Compound 57, Trans 6,7-dichloro-4-(1,2-dihydro-2-oxo-1-pyridyl)-2,2-dimethyl-3-hydroxy-1,2,3,4-tetrahydronaphthalen-1-one], in experiment [1], it took 1.5 µM to reach half-maximal inhibition (IC50). In addition, the “Pressure Decrease” value in experiment [2] stood at 52 mm Hg. The molecule also came in with an EC50 in experiment [3] of 0.5 µM.

`CC1(C)C(=O)c2ccc(S(=O)(=O)c3ccccc3)cc2[C@@H](n2ccccc2=O)[C@@H]1O` (relative stereo) [Compound 60, Trans 4-(1,2-dihydro-2-oxo-1-pyridyl)-2,2-dimethyl-3-hydroxy-6-phenylsulphonyl-1,2,3,4-tetrahydronaphthalen-1-one] returned an IC50 in experiment [1] of 0.3 µM. Further, the “Pressure Decrease” value in experiment [2] is recorded as 32.5 mm Hg.

For `COc1ccc2c(c1)C(n1ccccc1=O)=CC(C)(C)C2=O` [Compound 6, 1,2-dihydro-4-(1,2-dihydro-2-oxo-1-pyridyl)-2,2-dimethyl-6-methoxynaphthalen-1-one], in experiment [1], half-maximal inhibition (IC50) required 21 µM. Further, the “Pressure Decrease” value in experiment [2] was 42.5 mm Hg.

As to `CC1(C)C=C(n2ccccc2=O)c2cc(Cl)ccc2C1=O` [Compound 11, 6-chloro-1,2-dihydro-4-(1,2-dihydro-2-oxo-1-pyridyl)-2,2-dimethylnaphthalen-1-one], half-maximal inhibition in experiment [1] (IC50) required 1.4 µM. Further, the “Pressure Decrease” value in experiment [2] stood at 53 mm Hg. Moreover, a half-maximal response in experiment [3] (EC50) required 1.1 µM.

Molecule `CC1(C)C=C(N2CCCC2=O)c2cc(Cl)ccc2C1=O` [Compound 13, 6-chloro-1,2-dihydro-2,2-dimethyl-4-(2-oxo-1-pyrrolidinyl)naphthalen-1-one] displayed an IC50 in experiment [1] above 10 µM. The “Pressure Decrease” value in experiment [2] turned out to be 32 mm Hg. Moreover, the EC50 in experiment [3] is above 10 µM.

Turning to `CC1(C)C=C(n2ccccc2=O)c2cc(Br)ccc2C1=O` [Compound 16, 6-bromo-1,2-dihydro-4-(1,2-dihydro-2-oxo-1-pyridyl)-2,2-dimethylnaphthalen-1-one], the IC50 in experiment [1] amounted to 0.5 µM. Further, the midpoint of the response in experiment [3], the EC50, lay at 0.2 µM.

For the molecule `CC1(C)C=C(N2CCCC2=O)c2cc(Br)ccc2C1=O` [Compound 21, 6-bromo-1,2-dihydro-2,2-dimethyl-4-(2-oxo-1-pyrrolidinyl)naphthalen-1-one], the midpoint of inhibition in experiment [1], the IC50, lay at 10 µM. Moreover, in experiment [2], the “Pressure Decrease” value stood at 60.5 mm Hg. This molecule also displayed an EC50 in experiment [3] of 19 µM.

As for `CC1(C)C=C(n2ccccc2=O)c2cc(C#N)ccc2C1=O` [Compound 26, 1,2-dihydro-4-(1,2-dihydro-2-oxo-1-pyridyl)-2,2-dimethyl-1-oxonaphthalen-6-carbonitrile], 0.6 µM corresponded to half-maximal inhibition in experiment [1] (IC50). Besides, in experiment [2], the “Pressure Decrease” value stood at 96.5 mm Hg. Besides, the midpoint of the response in experiment [3], the EC50, lay at 0.1 µM.

In the case of `CC1(C)C=C(N2CCCC2=O)c2cc(C#N)ccc2C1=O` [Compound 30], 0.8 µM corresponded to half-maximal inhibition in experiment [1] (IC50). Besides, the “Pressure Decrease” value in experiment [2] was 103 mm Hg. The same molecule displayed an EC50 in experiment [3] of 0.9 µM.

In turn, `CC(=O)N(C)c1ccc2c(c1)C(n1ccccc1=O)=CC(C)(C)C2=O` [Compound 38, 1,2-dihydro-4-(1,2-dihydro-2-oxo-1-pyridyl)-2,2-dimethyl-6N-methylacetamidonaphthalen-1-one] came in with an IC50 in experiment [1] of 4.3 µM. In addition, the “Pressure Decrease” value in experiment [2] is recorded as 49.3 mm Hg. Moreover, a half-maximal response in experiment [3] (EC50) required 1.5 µM.

On to `CC(=O)N(C)c1ccc2c(c1)C(N1CCCC1=O)=CC(C)(C)C2=O` [Compound 40, 1,2-dihydro-2,2-dimethyl-6-N-methylacetamido-4-(2-oxo-1-pyrrolidinyl)naphthalen-1-one], for which the IC50 in experiment [1] was found to be 17 µM. Moreover, the “Pressure Decrease” value in experiment [2] was 23 mm Hg. This molecule also registered an EC50 in experiment [3] of 2.5 µM.

Regarding `CC1(C)C=C(n2ccccc2=O)c2cc(C(F)(F)F)ccc2C1=O` [Compound 42, 1,2-dihydro-4-(1,2-dihydro-2-oxo-1-pyridyl)-2,2-dimethyl-6-trifluoromethylnaphthalen-1-one], the IC50 in experiment [1] is 0.35 µM. Besides, the “Pressure Decrease” value in experiment [2] is listed as 103 mm Hg. Also, the EC50 in experiment [3] amounted to 31 µM.

With `CC1(C)C=C(n2ccccc2=O)c2cc(C#C[Si](C)(C)C)ccc2C1=O` [Compound 49, 1,2-dihydro-4-(1,2-dihydro-2-oxo-1-pyridyl)-2,2-dimethyl-6-trimethylsilylethynylnaphthalen-1-one], the IC50 in experiment [1] was found to be 0.46 µM. Further, in experiment [2], the “Pressure Decrease” value was determined as 91.5 mm Hg. The molecule also had an EC50 in experiment [3] of 4.8 µM.

`C#Cc1ccc2c(c1)C(n1ccccc1=O)=CC(C)(C)C2=O` [Compound 50, 1,2dihydro-4-(1,2-dihydro-2-oxo-1-pyridyl)-2,2-dimethyl-6-ethynylnaphthalen-1-one]: the IC50 in experiment [1] was found to be 0.98 µM. The “Pressure Decrease” value in experiment [2] was 112 mm Hg. In experiment [3], the EC50 came out at 0.25 µM.

Take `CC1(C)C=C(n2ccccc2=O)c2ccc(Br)cc2C1=O` [Compound 52, 7-bromo-1,2-dihydro-4-(1,2-dihydro-2-oxo-1-pyridyl)-2,2-dimethylnaphthalen-1-one]: the IC50 in experiment [1] came to 2.7 µM. The “Pressure Decrease” value in experiment [2] worked out at 37 mm Hg.

In turn, `CC1(C)C=C(n2ccccc2=O)c2ccc(C#N)cc2C1=O` [Compound 55, 1,2-dihydro-4-(1,2dihydro-2-oxo-1-pyridyl)-2,2-dimethyl-1-oxonaphthalen-7carbonitrile] registered an IC50 in experiment [1] above 10 µM. Besides, the “Pressure Decrease” value in experiment [2] came out at 41 mm Hg.

Take `CC1(C)C=C(n2ccccc2=O)c2cc(Cl)c(Cl)cc2C1=O` [Compound 58]: the IC50 in experiment [1] was found to be 0.7 µM. In experiment [2], the “Pressure Decrease” value came to 58 mm Hg. The same molecule returned a concentration giving a half-maximal response (EC50) in experiment [3] of 0.05 µM.
